Experimental data: patent publication US20230312476A1, “COMPOUNDS WITH SEMIOCHEMICAL PROPERTIES AND BIOSENSORS” (ROTHAMSTED RESEARCH LIMITED, priority 2020, published 2023)
Read-outs that look alike come from different tables or passages of the source.

What was measured:
OBP6 [1] = molecular target: T1, OBP6 (Acyrthosiphon pisum, UniProt A0A8R1TDN2); assay: 1-NPN fluorescence competitive binding assay, OBP6
Experimental: (§1) All fluorescent measurements were undertaken using a Perkin-Elmer LS50B fluorescence spectrophotometer, using a 2 mL quartz cuvette, and the settings described below in Table 13, unless otherwise stated. Spectra were recorded using FL WinLab software.
(§2) Saturation of OBPs with fluorescent probe and 1-NPN (Sigma-Aldrich) was initially measured by titrating a 2 μM protein sample (2 mL in 25 mM Tris-HCl) with aliquots of 1 mM ligand (Sigma-Aldrich) in methanol to final concentrations of 1-16 μM. The fluorescence intensity at […] was recorded.
(§3) The competitive binding of ligands was measured by observing the intrinsic fluorescence of tryptophan. Titrations were performed with aliquots of 1 mM ligand in methanol to final concentrations of 1-20 μM, either after the addition of fluorescent probe to a final concentration of 1 μM or in the absence of fluorescent probe.
(§4) To generate KD values, relative fluorescence intensity was plotted against the concentration of ligand as a binding curve. KD values were generated in GraphPad Prism 7 using a non-linear regression and the inbuilt equation: […]

OBP6 [2] = molecular target: T1, OBP6; assay: Fluorescent probe-free (intrinsic tryptophan fluorescence) binding assay, OBP6
Experimental: as §1, §3, §4

OBP9 = OBP9 (Acyrthosiphon pisum, UniProt A0A8R1TD77); assay: 1-NPN fluorescence competitive binding assay, OBP9
OBP9, sequence (A0A8R1TD77 1-165): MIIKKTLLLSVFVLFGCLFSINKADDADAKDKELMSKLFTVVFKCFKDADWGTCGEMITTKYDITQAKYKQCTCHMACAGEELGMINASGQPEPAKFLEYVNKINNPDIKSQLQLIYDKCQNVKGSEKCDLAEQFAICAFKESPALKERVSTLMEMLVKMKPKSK
Experimental: as §1, §2, §3, §4

[3] = OBP6 with 1-NPN fluorescent probe, non-linear regression, ± error, read-out: OBP6 1-NPN Assay KD
[4] = OBP6, absence of fluorescent probe, non-linear regression, ± error, read-out: OBP6 Fluorescent Probe-Free Assay KD
[5] = OBP9 with 1-NPN fluorescent probe, non-linear regression, ± error, read-out: OBP9 1-NPN Assay KD

T1 sequence (A0A8R1TDN2 1-160): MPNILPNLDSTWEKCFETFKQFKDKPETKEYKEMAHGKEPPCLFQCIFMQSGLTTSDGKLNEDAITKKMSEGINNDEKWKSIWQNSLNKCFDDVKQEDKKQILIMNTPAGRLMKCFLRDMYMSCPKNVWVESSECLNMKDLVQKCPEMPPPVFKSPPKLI

Row | SMILES | Kd (OBP6 [1]; [3]) [µM] | Kd (OBP6 [2]; [4]) [µM] | Kd (OBP6 [1]) [µM] | Kd (OBP9; [5]) [µM] | Kd (OBP6 [2]) [µM] | Kd (OBP9) [µM]
1 | C=CC(C)(O)CCC=C(C)C (racemic) [(R/S)-linalool] | – | – | 8.95 ± 3.71 | – | – | –
2 | C=CC(=C)CC/C=C(\C)CCC=C(C)C [(E)-β-farnesene] | 10.1 ± 2.88 | 34.5 ± 10.9 | – | 8.32 ± 2.67 | – | –
3 | CC1=CO[C@@H](O)[C@H]2[C@@H]1CC[C@@H]2C [Compound A, (1R,4aS,7S,7aR)-4,7-dimethyl-1,4a,5,6,7,7a-hexahydrocyclopenta[c]pyran-1-ol] | 2.62 ± 0.63 | 12.7 ± 2.31 | – | 5.74 ± 1.71 | – | –
4 | CC1=COC(=O)[C@H]2[C@H](C)CC[C@@H]12 [Compound D, (4aR,7R,7aS)-4,7-dimethyl-5,6,7,7a-tetrahydrocyclopenta[c]pyran-1(4aH)-one] | – | – | 4.37 ± 0.81 | – | 12 ± 4.24 | 9.68 ± 4.57

More lines, main results first:

Row | Kd (OBP6 [1]; [3]) [µM] | Kd (OBP6 [2]; [4]) [µM] | SMILES | Kd (OBP6 [1]) [µM] | Kd (OBP9; [5]) [µM] | Kd (OBP6 [2]) [µM] | Kd (OBP9) [µM]
5 | 1.3 ± 0.6 | 1.9 ± 0.35 | CC1=COC(=O)[C@H]2[C@@H]1CC[C@@H]2C [Compound B, (4aS,7S,7aR)-4,7-dimethyl-5,6,7,7a-tetrahydrocyclopenta[c]pyran-1(4aH)-one] | – | 6.49 ± 1.58 | – | –
6 | 2.65 ± 0.8 | 8.46 ± 1.62 | CC1=CO[C@H](O)[C@H]2[C@H](C)CC[C@@H]12 [Compound C, (1S,4aR,7R,7aS)-4,7-dimethyl-1,4a,5,6,7,7a-hexahydrocyclopenta[c]pyran-1-ol] | – | 6.29 ± 1.99 | – | –
